Measured values as given in PubChem BioAssay (NCI).
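Tested at 5 concentrations; 48 h exposure; 96-well plates; endpoints linearly interpolated, else capped at highest concentration. TGI marks complete inhibition of growth.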

Assays:
Assay in all cases: inhibition of tumour cell growth, NCI panel, 48 h
[1] = tested on: 786-0 renal
[2] = tested on: A498 renal
[3] = tested on: A549 NSCLC
[4] = tested on: ACHN renal
[5] = tested on: CCRF-CEM leukemia
[6] = tested on: COLO 205 colon
[7] = tested on: DLD-1 colon
[8] = tested on: DMS 114 small cell lung
[9] = tested on: DMS 273 small cell lung
[10] = tested on: EKVX NSCLC
[11] = tested on: HCC-2998 colon
[12] = tested on: HCT-116 colon
[13] = tested on: HCT-15 colon
[14] = tested on: HL-60(TB) leukemia
[15] = tested on: HOP-18 NSCLC
[16] = tested on: HOP-62 NSCLC
[17] = tested on: HOP-92 NSCLC
[18] = tested on: HT29 colon
[19] = tested on: IGROV1 ovarian
[20] = tested on: K-562 leukemia
[21] = tested on: KM12 colon
[22] = tested on: KM20L2 colon
[23] = tested on: LOX IMVI melanoma
[24] = tested on: LXFL 529 NSCLC
[25] = tested on: M14 melanoma
[26] = tested on: M19-MEL melanoma
[27] = tested on: MALME-3M melanoma
[28] = tested on: MOLT-4 leukemia
[29] = tested on: NCI-H226 lung
[30] = tested on: NCI-H23 lung
[31] = tested on: NCI-H460 lung
[32] = tested on: NCI-H522 lung
[33] = tested on: OVCAR-3 ovarian
[34] = tested on: OVCAR-4 ovarian
[35] = tested on: OVCAR-5 ovarian
[36] = tested on: OVCAR-8 ovarian
[37] = tested on: RPMI-8226 leukemia
[38] = tested on: RXF 393 renal
[39] = tested on: SF-268 CNS
[40] = tested on: SF-295 CNS
[41] = tested on: SF-539 CNS
[42] = tested on: SK-MEL-2 melanoma
[43] = tested on: SK-MEL-28 melanoma
[44] = tested on: SK-MEL-5 melanoma
[45] = tested on: SK-OV-3 ovarian
[46] = tested on: SN12C renal
[47] = tested on: SNB-19 CNS
[48] = tested on: SNB-75 CNS
[49] = tested on: SNB-78 CNS
[50] = tested on: SR leukemia
[51] = tested on: SW-620 colon
[52] = tested on: TK-10 renal
[53] = tested on: U251 CNS
[54] = tested on: UACC-257 melanoma
[55] = tested on: UACC-62 melanoma
[56] = tested on: UO-31 renal
[57] = tested on: XF 498 CNS
[58] = tested on: CAKI-1 renal

Structure (SMILES): CC(=O)OCCOCNC(=S)N/N=C/c1ccc([N+](=O)[O-])s1
- TGI [1]: > 100 µM
- TGI [2]: > 100 µM
- TGI [3]: > 100 µM
- TGI [4]: > 100 µM
- TGI [5]: > 100 µM
- TGI [6]: 4.61 µM
- TGI [7]: > 100 µM
- TGI [8]: 26.4 µM
- TGI [9]: 85.2 µM
- TGI [10]: > 100 µM
- TGI [11]: > 100 µM
- TGI [12]: 54 µM
- TGI [13]: > 100 µM
- TGI [14]: 11.5 µM
- TGI [15]: > 100 µM
- TGI [16]: > 100 µM
- TGI [17]: > 100 µM
- TGI [18]: > 100 µM
- TGI [19]: > 100 µM
- TGI [20]: > 100 µM
- TGI [21]: > 100 µM
- TGI [22]: > 100 µM
- TGI [23]: > 100 µM
- TGI [24]: > 100 µM
- TGI [25]: > 100 µM
- TGI [26]: 34.1 µM
- TGI [27]: > 100 µM
- TGI [28]: > 100 µM
- TGI [29]: > 100 µM
- TGI [30]: 43.1 µM
- TGI [31]: > 100 µM
- TGI [32]: 24.5 µM
- TGI [33]: > 100 µM
- TGI [34]: > 100 µM
- TGI [35]: > 100 µM
- TGI [36]: > 100 µM
- TGI [37]: > 100 µM
- TGI [38]: > 100 µM
- TGI [39]: > 100 µM
- TGI [40]: > 100 µM
- TGI [41]: > 100 µM
- TGI [42]: > 100 µM
- TGI [43]: > 100 µM
- TGI [44]: 81.7 µM
- TGI [45]: > 100 µM
- TGI [46]: > 100 µM
- TGI [47]: > 100 µM
- TGI [48]: > 100 µM
- TGI [49]: > 100 µM
- TGI [50]: > 100 µM
- TGI [51]: > 100 µM
- TGI [52]: > 100 µM
- TGI [53]: > 100 µM
- TGI [54]: 66.7 µM
- TGI [55]: > 100 µM
- TGI [56]: > 100 µM
- TGI [57]: > 100 µM

Structure (SMILES): CC1COS(=O)O1 (configuration not stated)
- TGI [1]: > 100 µM
- TGI [2]: > 100 µM
- TGI [3]: > 100 µM
- TGI [4]: > 100 µM
- TGI [58]: > 100 µM
- TGI [5]: > 100 µM
- TGI [6]: > 100 µM
- TGI [7]: > 100 µM
- TGI [8]: > 100 µM
- TGI [9]: > 100 µM
- TGI [10]: > 100 µM
- TGI [11]: > 100 µM
- TGI [12]: > 100 µM
- TGI [13]: > 100 µM
- TGI [14]: > 100 µM
- TGI [15]: > 100 µM
- TGI [16]: > 100 µM
- TGI [17]: > 100 µM
- TGI [18]: > 100 µM
- TGI [19]: > 100 µM
- TGI [20]: > 100 µM
- TGI [21]: > 100 µM
- TGI [22]: > 100 µM
- TGI [23]: > 100 µM
- TGI [25]: > 100 µM
- TGI [26]: > 100 µM
- TGI [27]: > 100 µM
- TGI [28]: > 100 µM
- TGI [29]: > 100 µM
- TGI [30]: > 100 µM
- TGI [31]: > 100 µM
- TGI [32]: > 100 µM
- TGI [33]: > 100 µM
- TGI [34]: > 100 µM
- TGI [35]: > 100 µM
- TGI [36]: > 100 µM
- TGI [37]: > 100 µM
- TGI [39]: > 100 µM
- TGI [40]: > 100 µM
- TGI [41]: > 100 µM
- TGI [42]: > 100 µM
- TGI [43]: > 100 µM
- TGI [44]: > 100 µM
- TGI [45]: > 100 µM
- TGI [46]: > 100 µM
- TGI [47]: > 100 µM
- TGI [48]: > 100 µM
- TGI [49]: > 100 µM
- TGI [50]: > 100 µM
- TGI [51]: > 100 µM
- TGI [52]: > 100 µM
- TGI [54]: > 100 µM
- TGI [55]: > 100 µM
- TGI [56]: > 100 µM
- TGI [57]: > 100 µM
